In ChEMBL document CHEMBL1201862, “PubChem BioAssay data set” (2004):
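These data come from cells grown in 96-well plates and exposed to compound for 48 hours at five concentrations. At the GI50, growth is halved.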 Activity calls are given as the source filed them. No stated cut-off is given here; in the data, active = GI50 up to about 1.1 µM and inactive = higher.

Tests used:
Assay in all cases: DTP human tumour cell line panel, 48 h
786-0 = tested on: 786-0
A549 = tested on: A549
CAKI-1 = tested on: CAKI-1
DLD-1 = tested on: DLD-1
HL-60 = tested on: HL-60
HT-29 = tested on: HT-29
M14 = tested on: M14
SF-268 = tested on: SF-268
SF-295 = tested on: SF-295
SF-539 = tested on: SF-539
SK-MEL-2 = tested on: SK-MEL-2
SK-MEL-5 = tested on: SK-MEL-5
SNB-19 = tested on: SNB-19
SNB-75 = tested on: SNB-75
TK-10 = tested on: TK-10
UACC-257 = tested on: UACC-257
DU-145 = tested on: DU-145
MDA-MB-231 = tested on: MDA-MB-231
MDA-N = tested on: MDA-N
T47D = tested on: T47D

Structure (SMILES) | GI50 (786-0) | GI50 (A549) | GI50 (CAKI-1) | GI50 (DLD-1) | GI50 (HL-60) | GI50 (HT-29) | GI50 (M14) | GI50 (SF-268) | GI50 (SF-295) | GI50 (SF-539) | GI50 (SK-MEL-2) | GI50 (SK-MEL-5) | GI50 (SNB-19) | GI50 (SNB-75) | GI50 (TK-10) | GI50 (UACC-257) | GI50 (DU-145) | GI50 (MDA-MB-231) | GI50 (MDA-N) | GI50 (T47D)
COC(=O)C1CC2(CC3=C1CCCC3)OCCO2 (stereo not drawn) | > 100 µM (inactive) | > 100 µM (inactive) | > 100 µM (inactive) | > 100 µM (inactive) | > 100 µM (inactive) | > 100 µM (inactive) | > 100 µM (inactive) | > 100 µM (inactive) | > 100 µM (inactive) | > 100 µM (inactive) | > 100 µM (inactive) | > 100 µM (inactive) | > 100 µM (inactive) | > 100 µM (inactive) | > 100 µM (inactive) | > 100 µM (inactive) | – | – | – | –
Cc1c(C(=O)C/C(=N/NC(=O)c2ccccc2)C(=O)Nc2ccc(Cl)cc2)[n+]([O-])c2ccccc2[n+]1[O-] | > 100 µM (inactive) | > 100 µM (inactive) | 82.4 µM (inactive) | 75.7 µM (inactive) | 29 µM (inactive) | > 100 µM (inactive) | > 100 µM (inactive) | > 100 µM (inactive) | 63.8 µM (inactive) | > 100 µM (inactive) | > 100 µM (inactive) | > 100 µM (inactive) | 88.3 µM (inactive) | > 100 µM (inactive) | > 100 µM (inactive) | 69.8 µM (inactive) | – | – | – | –
CCOC(OCC)C(CC)[Se]c1ccccc1[N+](=O)[O-] (stereo not drawn) | 3.41 µM (inactive) | 4.79 µM (inactive) | 2.75 µM (inactive) | 3.1 µM (inactive) | 0.418 µM (active) | 2.39 µM (inactive) | 1.63 µM (inactive) | 8.04 µM (inactive) | 2.32 µM (inactive) | 2.02 µM (inactive) | 6.34 µM (inactive) | 2.42 µM (inactive) | 3.75 µM (inactive) | 3.45 µM (inactive) | 8.09 µM (inactive) | 8.83 µM (inactive) | 3.95 µM (inactive) | 9.2 µM (inactive) | 0.352 µM (active) | 9.06 µM (inactive)
O=C1Oc2cc3c(c4cccc1c24)OCN(c1ccc(Cl)cc1)C3 | 14.3 µM (inactive) | 10.2 µM (inactive) | 38.8 µM (inactive) | 5.42 µM (inactive) | 4.82 µM (inactive) | 11.4 µM (inactive) | 6.97 µM (inactive) | 23.9 µM (inactive) | 48 µM (inactive) | 4.46 µM (inactive) | 1.83 µM (inactive) | 1.37 µM (inactive) | 47.8 µM (inactive) | > 63.7 µM (inactive) | > 100 µM (inactive) | 34.9 µM (inactive) | – | – | – | –
O=C(/C=C/c1ccccc1)NC1C=Nc2ccc(Cl)cc2NC1=O (stereo not drawn) | 23.2 µM (inactive) | 28.2 µM (inactive) | 22.6 µM (inactive) | 20.8 µM (inactive) | 5.3 µM (inactive) | 30 µM (inactive) | 21.9 µM (inactive) | 36.2 µM (inactive) | 29 µM (inactive) | 27.2 µM (inactive) | 30.5 µM (inactive) | 16.5 µM (inactive) | 29.1 µM (inactive) | 15.6 µM (inactive) | 36 µM (inactive) | 26.4 µM (inactive) | – | – | – | –
CCOc1ccccc1NC(=O)C1=C(C)NC(C)=C(C(=O)Nc2ccccc2OCC)C1c1ccc(NC(C)=O)cc1 | 29.6 µM (inactive) | 46.6 µM (inactive) | 17.2 µM (inactive) | 37 µM (inactive) | 31.6 µM (inactive) | 40.6 µM (inactive) | 29.9 µM (inactive) | 56.6 µM (inactive) | 13.2 µM (inactive) | 41.7 µM (inactive) | 17.9 µM (inactive) | 40.7 µM (inactive) | 96.2 µM (inactive) | 9.75 µM (inactive) | 47.6 µM (inactive) | 23.6 µM (inactive) | – | – | – | –
Cc1ccccc1C(CCCO)C(=O)O (stereo not drawn) | > 100 µM (inactive) | > 100 µM (inactive) | > 100 µM (inactive) | > 100 µM (inactive) | > 100 µM (inactive) | > 100 µM (inactive) | > 100 µM (inactive) | > 100 µM (inactive) | > 100 µM (inactive) | > 100 µM (inactive) | > 100 µM (inactive) | > 100 µM (inactive) | > 100 µM (inactive) | > 100 µM (inactive) | > 100 µM (inactive) | > 100 µM (inactive) | – | – | – | –
CCSC1=C(C)N(/C=N/C(C)(C)C)CC1 | > 100 µM (inactive) | > 100 µM (inactive) | > 100 µM (inactive) | > 100 µM (inactive) | > 100 µM (inactive) | > 100 µM (inactive) | > 100 µM (inactive) | > 100 µM (inactive) | > 100 µM (inactive) | > 100 µM (inactive) | > 100 µM (inactive) | > 100 µM (inactive) | > 100 µM (inactive) | > 100 µM (inactive) | > 100 µM (inactive) | > 100 µM (inactive) | – | – | – | –
CCCc1c(C(=O)OCC)[nH]c(-c2ccc(-c3[nH]c(C(=O)OCC)c(CCC)c3C(=O)OCC)s2)c1C(=O)OCC | 21.8 µM (inactive) | 52.4 µM (inactive) | 39.7 µM (inactive) | > 100 µM (inactive) | 46 µM (inactive) | 38.8 µM (inactive) | 49.8 µM (inactive) | 26.9 µM (inactive) | 27.9 µM (inactive) | 41 µM (inactive) | 15.7 µM (inactive) | 35.2 µM (inactive) | 78.3 µM (inactive) | 11.8 µM (inactive) | 50.1 µM (inactive) | 66.1 µM (inactive) | – | – | – | –
COC(=O)C1=C(C(=O)OC)C23CC4CCC2(C(=O)C1O3)C4(C)C (stereo not drawn) | > 100 µM (inactive) | > 100 µM (inactive) | > 100 µM (inactive) | 57.1 µM (inactive) | 21.2 µM (inactive) | > 100 µM (inactive) | > 100 µM (inactive) | 94.4 µM (inactive) | 95.1 µM (inactive) | > 100 µM (inactive) | > 100 µM (inactive) | > 100 µM (inactive) | > 100 µM (inactive) | 53.8 µM (inactive) | > 100 µM (inactive) | > 100 µM (inactive) | > 100 µM (inactive) | – | – | –
Cc1ccc(S(=O)(=O)N/N=C/c2oc(-c3cccc([N+](=O)[O-])c3)c(-c3cccc([N+](=O)[O-])c3)c2[N+](=O)[O-])cc1 | 60.7 µM (inactive) | > 100 µM (inactive) | > 100 µM (inactive) | 32.2 µM (inactive) | 25.4 µM (inactive) | > 100 µM (inactive) | 51.2 µM (inactive) | 21.2 µM (inactive) | 49.8 µM (inactive) | > 100 µM (inactive) | 28.3 µM (inactive) | 73.1 µM (inactive) | 67.1 µM (inactive) | 92.5 µM (inactive) | > 100 µM (inactive) | 64.7 µM (inactive) | > 100 µM (inactive) | – | – | –
CC[n+]1c(/C=C/c2ccc(N(CCCl)CCCl)cc2)ccc2cc(I)ccc21 | 1.24 µM (inactive) | 3.04 µM (inactive) | 2 µM (inactive) | 1.58 µM (inactive) | 0.217 µM (active) | 1.84 µM (inactive) | 1.21 µM (inactive) | 1.78 µM (inactive) | 2.04 µM (inactive) | 0.979 µM (active) | 0.372 µM (active) | 0.552 µM (active) | 0.843 µM (active) | 0.394 µM (active) | 2.05 µM (inactive) | 0.514 µM (active) | – | – | – | –
